From PMC12246139 (Scientific Reports, 2025)
Where “and” joins values, the source holds several entries; their conditions need not be identical. Identical values can stand only once. Like-named read-outs stand apart in the source and are kept apart here.

Experiments:
KRAS(WT) [1] = target: T1, KRAS(WT) (Homo sapiens, UniProt P01116); test: FRET-Probe thermal stability assay; type: binding; design: full-length KRAS(G12C), KRAS(G12C/H95L), KRAS(G12C/Y96D) and KRAS(WT); host or cells: E. coli
Method: (§1) FRET-Probe thermal stability assays[69] were conducted in triplicates in an assay buffer containing 10 mM HEPES (pH 7.5), 10 mM NaCl, 0.5 mM MgCl2, and 0.01% (v/v) Brij-30. Assay was also performed in an assay buffer without MgCl2. […] Thereafter, 8 μL of the 1 × FRET-Probe was added, and signals were monitored using step-by-step protocol by heating from 34–96 °C using 2 °C steps and heating the sample 1.5 min at each step prior measurement using 340 and 665 nm excitation and emission wavelengths and 50 and 200 μs delay and decay time, respectively. Thermal heating was performed with a PTC-100 Programmable Thermal Controller (MJ Research, Inc., Watertown, MA). All concentrations are informed in a final 20 μL reaction volume in white 96-well PCR-plate (BioRad, USA). Tm values were obtained using standard sigmoidal fitting functions from Origin 2016 software. […]
TR-FRET signals from the triplicate reactions were monitored for every 2 °C, up to 96 °C. Normalized thermal curves with or without MgCl2 (0.2 mM) are shown in A and C, and the same data is presented as TR-FRET signals in B and D, respectively.
(§2) (1 picture or pasted object on this page, not shown here)

NRAS(G12C) = NRAS(G12C) (Homo sapiens, UniProt P01111, G12C); test: biochemical; conditions: 10 nM NRAS(G12C), 5 nM SOScat, 15 min preincubation; read-out: Nucleotide exchange IC50
Method: (§3) Nucleotide exchange inhibition was monitored in an assay with 10 nM KRAS and 5 nM SOS^cat, utilizing Eu^3+-GTP TRL-signal protection upon KRAS binding according to QRET principle. […] (d) Overview of the assay results presented in (a–c) and Figs. S17, S19–S20.
(§4) SII-P inhibitor activities can differ among RAS isoforms (KRAS/HRAS/NRAS). These isoforms differ only in position 95 in the SII-P (Fig. S18).
(§5) Nucleotide exchange assays using the QRET principle[63]–[65],[68] were performed in assay buffer containing 20 mM HEPES (pH 7.5) 1 mM MgCl2, 10 mM NaCl, 0.01% (v/v) Triton X-100. […] Thereafter, 6 μL of detection solution (3.5 μM MT2 and 10 nM Eu^3+-GTP) was added and reaction was initiated with 5 nM SOS^cat added in 3 μL volume. TRL-signals were monitored using Tecan Spark 20 M from Tecan Life Sciences (Männedorf, Switzerland) by using 340 and 620 nm excitation and emission wavelengths and 800 and 400 μs delay and decay time, respectively. All concentrations are informed in a final 15 μL reaction volume in white 384-well low volume plates (Corning, USA). IC50 values were obtained using standard sigmoidal fitting functions from Origin 2016 software (Origin Lab, Northampton, MA).

HRAS(G12C) = HRAS(G12C) (Homo sapiens, UniProt P01112, G12C); test: biochemical; conditions: 10 nM HRAS(G12C), 5 nM SOScat, 15 min preincubation; read-out: Nucleotide exchange IC50
Method: as §3, §4, §5

KRAS(G12C/Y96D) [2] = target: T2, KRAS(G12C/Y96D) (Homo sapiens, UniProt P01116, G12C/Y96D); test: biochemical; type: binding; conditions: 20 nM KRAS(G12C/Y96D), 1 M urea, 120 min at room temperature; read-out: Chemical stability IC50
Method: as §3
(§6) In these assays, no external protein (SOS^cat) is used and only KRAS and inhibitors are present. First, we conducted a chemical stability assay by utilizing the FRET-Probe technique. In this system, time dependent KRAS (20 nM) denaturation is monitored in 1 M urea solution after KRAS preincubation with varying inhibitor concentration. […] In this assay, we observed an exceptionally high stability increase with both inhibitors (Fig. 5d; Fig. S17).
(§7) FRET-Probe chemical stability assays[69] were performed in triplicates in an assay buffer containing 10 mM HEPES (pH 7.5), 10 mM NaCl, and 0.01% (v/v) Brij-30 (with or without 0.2 mM MgCl2) and destabilizing detection buffer with 10 mM HEPES (pH 7.5), 1 M urea, and 0.01% (v/v) Brij-30. […] Thereafter, 16 μL of the 1 × FRET-Probe was added in destabilizing detection buffer and TR-FRET signal was monitored multiple times during 120 min incubation (parameters as in thermal stability assay). All concentrations are informed in a final 20 μL reaction volume in white 384-well low volume plates (Corning, USA). IC50 values were obtained by blotting the signals obtained with different inhibitor concentrations at the selected time point against the inhibitor concentration and using standard sigmoidal fitting functions from Origin 2016 software.

KRAS(G12C/H95L) [3] = target: T3, KRAS(G12C/H95L) (Homo sapiens, UniProt P01116, G12C/H95L); test: biochemical; type: binding; conditions: 20 nM KRAS(G12C/H95L), 1 M urea, 120 min at room temperature; read-out: Chemical stability IC50
Method: as §3, §6, §7

KRAS(G12C) [4] = target: T4, KRAS(G12C) (Homo sapiens, UniProt P01116, G12C); test: biochemical; type: binding; conditions: 20 nM KRAS(G12C), 1 M urea, 120 min at room temperature; read-out: Chemical stability IC50
Method: as §3, §6, §7

KRAS(WT) [5] = target: T1, KRAS(WT); test: biochemical; conditions: 10 nM KRAS(WT), 5 nM SOScat, 15 min preincubation; read-out: Nucleotide exchange IC50
Method: Our results imply that both inhibitors are highly dependent on their covalent interaction to G12C for efficient and potent RAS inhibition.
as §5
with 10 nM KRAS(WT) and 5 nM SOScat, utilizing Eu3+-GTP (10 nM) TRL-signal protection upon
KRAS binding according to QRET principle.
as §2

KRAS(G12C/Y96D) [6] = target: T2, KRAS(G12C/Y96D); test: biochemical; conditions: 10 nM KRAS(G12C/Y96D), 5 nM SOScat, 15 min preincubation; read-out: Nucleotide exchange IC50
Source text: (§8) First, we performed a traditional nucleotide exchange assay using a single-label quenching resonance energy transfer (QRET) principle[63]–[65] and non-labeled full-length KRAS(G12C), (G12C/H95L), and (G12C/Y96D). The selection of the two double mutants was based on the observed interactions in the MD simulations (Figs. 2, 3), and the fact that acquired resistance with SII-P inhibitors is associated with these mutations, as clinically observed for sotorasib and adagrasib[66]–[68].
as §3, §5

KRAS(G12C/H95L) [7] = target: T3, KRAS(G12C/H95L); test: biochemical; conditions: 10 nM KRAS(G12C/H95L), 5 nM SOScat, 15 min preincubation; read-out: Nucleotide exchange IC50
Source text: as §8, §3, §5

KRAS(G12C) [8] = target: T4, KRAS(G12C); test: FRET-Probe thermal stability assay; type: binding
Method: as §6, §1
heating with the FRET-Probe. KRAS(G12C) was preincubated 15 min prior the thermal ramping, in […]
which the TR-FRET signals from the triplicate reactions were monitored for every 2 °C, up to 96 °C.
Normalized thermal curves with or without MgCl2 (0.2 mM) are shown in A and C, and the same data […]
is presented as TR-FRET signals in B and D, respectively.
as §2

KRAS(G12C) [9] = target: T4, KRAS(G12C); test: biochemical; conditions: 10 nM KRAS(G12C), 5 nM SOScat, 15 min preincubation; read-out: Nucleotide exchange IC50

Chain of NRAS(G12C) (P01111 1-169 G12C): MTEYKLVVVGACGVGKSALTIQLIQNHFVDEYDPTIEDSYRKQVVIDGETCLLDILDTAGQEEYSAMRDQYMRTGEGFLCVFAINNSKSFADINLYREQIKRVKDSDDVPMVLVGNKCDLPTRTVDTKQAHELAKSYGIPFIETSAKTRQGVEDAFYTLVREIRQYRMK
Chain of HRAS(G12C) (P01112 1-169 G12C): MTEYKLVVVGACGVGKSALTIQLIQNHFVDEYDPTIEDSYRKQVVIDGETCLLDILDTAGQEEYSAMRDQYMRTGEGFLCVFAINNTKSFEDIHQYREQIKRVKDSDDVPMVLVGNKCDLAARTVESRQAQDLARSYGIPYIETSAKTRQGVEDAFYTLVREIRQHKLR

Row | ΔTm at 10 µM (KRAS(WT) [1]; 20 nM KRAS(WT), 10,000 nM inhibitor, first value (footnote f), one of the with / without Mg2+ conditions, read-out: Thermal stability ΔTm) | ΔTm at 10 µM (KRAS(WT) [1]; 20 nM KRAS(WT), 10,000 nM inhibitor, second value (footnote g), the other of the with / without Mg2+ conditions, read-out: Thermal stability ΔTm) | ΔTm at 0.05 µM (KRAS(G12C) [8]; 20 nM KRAS(G12C), 50 nM inhibitor, first value (footnote c), one of the with / without Mg2+ conditions, read-out: Thermal stability ΔTm) | ΔTm at 0.05 µM (KRAS(G12C) [8]; 20 nM KRAS(G12C), 50 nM inhibitor, second value (footnote d), the other of the with / without Mg2+ conditions, read-out: Thermal stability ΔTm) | Structure (SMILES) | IC50 (NRAS(G12C)) | IC50 (HRAS(G12C)) | IC50 (KRAS(G12C/Y96D) [2]) | IC50 (KRAS(G12C/H95L) [3]) | IC50 (KRAS(G12C) [4]) | IC50 (KRAS(WT) [5]) | IC50 (KRAS(G12C/Y96D) [6]) | IC50 (KRAS(G12C/H95L) [7]) | ΔTm at 10 µM (KRAS(WT) [1]; read-out: Thermal stability ΔTm, 20 nM KRAS(WT), 10,000 nM inhibitor, first value (footnote f), one of the with / without Mg2+ conditions) | ΔTm at 10 µM (KRAS(WT) [1]; read-out: Thermal stability ΔTm, 20 nM KRAS(WT), 10,000 nM inhibitor, second value (footnote g), the other of the with / without Mg2+ conditions) | ΔTm at 0.05 µM (KRAS(G12C) [8]; read-out: Thermal stability ΔTm, 20 nM KRAS(G12C), 50 nM inhibitor, first value (footnote c), one of the with / without Mg2+ conditions) | ΔTm at 0.05 µM (KRAS(G12C) [8]; read-out: Thermal stability ΔTm, 20 nM KRAS(G12C), 50 nM inhibitor, second value (footnote d), the other of the with / without Mg2+ conditions) | IC50 (KRAS(G12C) [9])
1 | 5.2 °C | 5.5 °C | 23.7 °C | 32.5 °C | C=CC(=O)N1CCN(c2nc(OC[C@@H]3CCCN3C)nc3c(F)c(-c4nc(N)cc(C)c4C(F)(F)F)c(Cl)cc23)[C@@H](C)C1 [GDC-6036, divarasib] | 29.8 ± 2.35 nM | 32.9 ± 2.2 nM | 106 ± 6 nM | 15 ± 3.4 nM | 5.9 ± 0.9 nM | 291 ± 23 nM | 229 ± 59 nM | 12 ± 3 nM | – | – | – | – | –
2 | – | – | – | – | C=CC(=O)N1CCN2C(=O)c3cc(F)c(-c4ccc(F)c5sc(N)c(C#N)c45)c(Cl)c3OCC[C@H]2C1 [LY3537982, olomorasib] | 0.16 ± 0.013 nM | 0.48 ± 0.042 nM | 1.6 ± 0.1 nM | 0.345 nM and 0.35 nM | 0.368 nM and 0.37 nM | 343 ± 23 nM | 2.8 ± 0.8 nM | 0.121 nM and 0.12 nM | 5.1 °C | 4.9 °C | 20.5 °C | 30.4 °C | 0.956 ± 0.3 nM
